{"source": "patent US20180305299A1", "about": "“N-(2-FLUORO-2-PHENETHYL)CARBOXAMIDES AS NEMATICIDES AND ENDOPARASITICIDES” (priority 2013, published 2018)", "key": {"Haemonchus contortus": {"system": "Haemonchus contortus", "test": "Haemonchus contortus test (HAEMCO), larval mortality", "conditions": "120 h; for mortality at 20 ppm: application rate 20 ppm, after 5 days, read-out: activity (larval mortality, efficacy); for Emax at 0.8 ppm: 5 dat, read-out: % Efficacy HAEMCO", "description": "Haemonchus contortus—Test (HAEMCO)\n(§1) Solvent: dimethyl sulfoxide\n(§2) To produce a suitable preparation of active compound, 10 mg of active compound are dissolved in 0.5 ml solvent, and the concentrate is diluted with “Ringer's solution” to the desired concentration.\nApproximately 40 larvae of the red stomach worm (Haemonchus contortus) are transferred into a test tube containing compound solution.\nAfter 5 days percentage of larval mortality are recorded. 100% efficacy means all larvae are killed, 0% efficacy means no larvae are killed.\nHaemonchus contortus—Test (HAEMCO) Solvent: dimethyl sulfoxide"}, "Meloidogyne incognita [1]": {"system": "Meloidogyne incognita", "test": "Meloidogyne incognita test (MELGIN), gall formation, solvent acetone", "type": "in vivo", "conditions": "application rate 20 ppm; after 14 days", "description": "(§3) Meloidogyne incognita—Test (MELGIN)\nTo produce a suitable preparation of active compound, 1 part by weight of active compound is mixed with the stated amount of solvent, and the concentrate is diluted with water to the desired concentration.\nVessels are filled with sand, a solution of the active ingredient, a suspension containing eggs and larvae of the southern root-knot nematode (Meloidogyne incognita) and salad seeds. The salad seeds germinate and the seedlings grow. Galls develop in the roots.\nAfter 14 days the nematicidal activity is determined on the basis of the percentage of gall formation. 100% means that no galls were found; 0% means that the number of galls found on the roots of the treated plants was equal to that in untreated control plants."}, "log P (HPLC-MS)": {"test": "log P (HPLC-MS)", "type": "physicochemical"}, "Meloidogyne incognita [2]": {"system": "Meloidogyne incognita", "test": "Meloidogyne incognita test (MELGIN), comparison example, solvent dimethylformamide with emulsifier", "type": "in vivo", "conditions": "504 h, 21 dat, read-out: % Efficacy MELGIN", "description": "as §3\nTo produce a suitable preparation of active compound, 1 part by weight of active compound is mixed with the stated amount of solvent, and the concentrate is diluted with emulsifier-containing water to the desired concentration.\nVessels are filled with sand, a solution of the active ingredient, a suspension containing eggs and larvae of Meloidogyne incognita and salad seeds. The salad seeds germinate and the seedlings grow. Galls develop on the roots.\nAfter the specified period of time the nematicidal activity is determined on the basis of the percentage of gall formation. 100% means that no galls were found; 0% means that the number of galls found on the roots of the treated plants was equal to that in untreated control plants."}, "Cooperia curticei": {"system": "Cooperia curticei", "test": "Cooperia curticei test (COOPCU), larval mortality", "conditions": "120 h; for Emax at 0.8 ppm: read-out: % Efficacy COOPCU; for mortality at 20 ppm: read-out: activity (larval mortality, efficacy)", "description": "Cooperia curticei—Test (COOPCU)\nas §1, §2\nApproximately 40 nematode larvae (Cooperia curticei) are transferred into a test tube containing the compound solution.\nAfter 5 days percentage of larval mortality is recorded. 100% efficacy means all larvae are killed; 0% efficacy means no larvae are killed.\nCooperia curticei—Test (COOPCU) Solvent: dimethyl sulfoxide"}, "[3]": {"system": "Heligmosomoides polygyrus", "test": "Heligmosomoides polygyrus/mouse in vivo efficacy test", "conditions": "mice; oral; four consecutive days during early patency; dose not given", "description": "Heligmosomoides polygyrus/mouse\nMice, experimentally infected by Heligmosomoides polygyrus, were treated on four consecutive days during early patency. Test compounds were formulated as solutions or suspensions and applied orally.\nEfficacy was determined as reduction of worm count in the intestine after necropsy compared to worm count in an infected and placebo-treated control group."}}, "note": "Where a name gives a salt, the structure may show the parent alone. Read-outs that look alike come from different tables or passages of the source."}
{"molecule": "O=C(NCC(F)c1ccccc1C(F)(F)F)c1ccccc1C(F)(F)F", "note": "(stereo not drawn) [Example 1-399, N-{2-fluoro-2-[2-(trifluoromethyl)phenyl]ethyl}-2-(trifluoromethyl)benzamide]", "values": [{"measurement": "mortality at 20 ppm", "setting": "Haemonchus contortus", "value": 100, "unit": "%"}]}
{"molecule": "CC(F)(CNC(=O)c1ccccc1C(F)(F)F)c1ccc(Cl)cc1Cl", "note": "(stereo not drawn) [Example 1-406, N-[2-(2,4-dichlorophenyl)-2-fluoropropyl]-2-(trifluoromethyl)benzamide]", "values": [{"measurement": "activity (nematicidal, gall formation)", "setting": "Meloidogyne incognita [1]", "value": 100, "unit": "%"}, {"measurement": "chromatographic logP", "setting": "log P (HPLC-MS)", "value": 3.7}]}
{"molecule": "O=C(NCC(F)c1ccccc1Cl)c1ccccc1C(F)(F)F", "note": "(stereo not drawn) [Example 1-400, N-[2-(2-chlorophenyl)-2-fluoroethyl]-2-(trifluoromethyl)benzamide]", "values": [{"measurement": "mortality at 20 ppm", "setting": "Haemonchus contortus", "value": 100, "unit": "%"}]}
{"molecule": "CC(Cc1ccc(Cl)cc1Cl)NC(=O)c1ccccc1C(F)(F)F", "note": "(stereo not drawn) [Example 1-32 known from WO-A 2012/118139, reference compound]", "values": [{"measurement": "Emax at 0.8 ppm", "setting": "Haemonchus contortus", "value": 80, "unit": "%"}, {"measurement": "Emax at 2 ppm", "setting": "Meloidogyne incognita [2]", "value": 15, "unit": "%"}, {"measurement": "Emax at 0.8 ppm", "setting": "Cooperia curticei; 0.8 ppm, 5 dat", "value": 0, "unit": "%"}]}
{"molecule": "CC(F)(CN)c1ccc(Cl)cc1Cl", "note": "(stereo not drawn) [2-(2,4-dichlorophenyl)-2-fluoropropan-1-amine hydrochloride]", "values": [{"measurement": "chromatographic logP", "setting": "log P (HPLC-MS)", "value": 0.89}]}
{"molecule": "O=C(NCC(F)(F)c1ccc(Cl)cc1Cl)c1ccccc1C(F)(F)F", "note": "[Example 1-1, N-[2-(2,4-dichlorophenyl)-2,2-difluoroethyl]-2-(trifluoromethyl)benzamide]", "values": [{"measurement": "Emax at 0.8 ppm", "setting": "Haemonchus contortus", "value": 100, "unit": "%"}, {"measurement": "mortality at 20 ppm", "setting": "Haemonchus contortus", "value": 100, "unit": "%"}, {"measurement": "activity (nematicidal, gall formation)", "setting": "Meloidogyne incognita [1]", "value": 100, "unit": "%"}, {"measurement": "activity (reduction of worm count in the intestine vs placebo-treated control)", "setting": "[3]", "value": 65, "unit": "%"}, {"measurement": "Emax at 2 ppm", "setting": "Meloidogyne incognita [2]", "value": 95, "unit": "%"}, {"measurement": "Emax at 0.8 ppm", "setting": "Cooperia curticei", "value": 100, "unit": "%"}, {"measurement": "mortality at 20 ppm", "setting": "Cooperia curticei", "value": 100, "unit": "%"}]}
{"molecule": "CC(F)(CNC(=O)c1ccccc1C(F)(F)F)c1ccc(Cl)cc1Cl", "note": "(stereo not drawn) [Example 1-393, N-[2-(2,4-dichlorophenyl)-2-fluoropropyl]-2-(trifluoromethyl)benzamide]", "values": [{"measurement": "mortality at 20 ppm", "setting": "Haemonchus contortus", "value": 100, "unit": "%"}, {"measurement": "activity (nematicidal, gall formation)", "setting": "Meloidogyne incognita [1]", "value": 100, "unit": "%"}, {"measurement": "mortality at 20 ppm", "setting": "Cooperia curticei", "value": 100, "unit": "%"}]}
